Laboratory results as given in US8426397B2, “3 (3-pyrimidin-2-ylbenzyl)-1,2,4-triazolo[4,3-b]pyridazine derivatives” (Merck Patent Gesellschaft mit Beschränkter Haftung, priority 2008, dated 2013).

Columns and labels:
Met kinase [1] = target: T1, Met kinase (Homo sapiens, UniProt P08581); test: Met kinase inhibition (cell); assay type: cell-based
Target sequence in this assay (P08581 25-1390): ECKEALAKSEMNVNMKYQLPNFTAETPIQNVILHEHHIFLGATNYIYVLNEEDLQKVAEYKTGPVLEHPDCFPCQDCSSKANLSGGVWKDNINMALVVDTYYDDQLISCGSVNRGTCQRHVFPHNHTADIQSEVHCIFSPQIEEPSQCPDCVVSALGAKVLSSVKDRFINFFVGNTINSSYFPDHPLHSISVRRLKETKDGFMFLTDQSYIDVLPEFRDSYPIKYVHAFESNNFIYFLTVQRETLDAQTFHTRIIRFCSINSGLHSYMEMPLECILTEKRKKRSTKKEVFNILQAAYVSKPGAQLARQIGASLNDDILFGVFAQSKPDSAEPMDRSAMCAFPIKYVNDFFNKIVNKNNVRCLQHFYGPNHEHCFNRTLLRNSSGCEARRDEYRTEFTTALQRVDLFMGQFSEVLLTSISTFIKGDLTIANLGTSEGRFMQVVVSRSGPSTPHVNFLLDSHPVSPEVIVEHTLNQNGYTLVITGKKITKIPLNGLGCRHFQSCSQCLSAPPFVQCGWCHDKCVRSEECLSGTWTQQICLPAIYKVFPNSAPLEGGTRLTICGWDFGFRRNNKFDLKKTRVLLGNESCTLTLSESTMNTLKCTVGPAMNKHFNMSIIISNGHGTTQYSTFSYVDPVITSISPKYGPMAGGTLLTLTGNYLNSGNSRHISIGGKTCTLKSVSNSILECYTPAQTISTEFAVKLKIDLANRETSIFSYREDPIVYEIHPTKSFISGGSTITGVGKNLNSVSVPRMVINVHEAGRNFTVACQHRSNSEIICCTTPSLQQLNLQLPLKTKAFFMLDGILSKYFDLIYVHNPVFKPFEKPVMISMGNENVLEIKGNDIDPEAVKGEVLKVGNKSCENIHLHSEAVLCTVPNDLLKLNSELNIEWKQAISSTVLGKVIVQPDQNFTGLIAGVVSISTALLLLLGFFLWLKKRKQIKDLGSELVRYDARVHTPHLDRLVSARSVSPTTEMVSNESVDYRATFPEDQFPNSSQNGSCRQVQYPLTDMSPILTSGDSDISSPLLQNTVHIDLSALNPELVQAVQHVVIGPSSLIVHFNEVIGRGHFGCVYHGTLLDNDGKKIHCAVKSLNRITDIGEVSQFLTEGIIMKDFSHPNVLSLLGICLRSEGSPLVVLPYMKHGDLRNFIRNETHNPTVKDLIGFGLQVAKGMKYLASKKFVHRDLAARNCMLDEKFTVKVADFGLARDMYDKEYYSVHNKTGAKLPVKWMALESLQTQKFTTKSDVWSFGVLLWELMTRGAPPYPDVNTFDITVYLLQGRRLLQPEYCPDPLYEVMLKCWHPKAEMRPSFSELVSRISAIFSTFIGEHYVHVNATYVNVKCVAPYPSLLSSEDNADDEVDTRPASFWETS

Met kinase [2] = target: T1, Met kinase; test: Met kinase flashplate method (enzyme); assay type: biochemical; parameters: 6His (N); purchased Upstate 14-526; host or cells: Sf21 insect cells (S. frugiperda), baculovirus; conditions: Met kinase inhibition
Excerpt: According to the manufacturer's data (Met, active, Upstate, catalogue No. 14-526), Met kinase is expressed for the purposes of protein production in insect cells (Sf21; S. frugiperda) and subsequent affinity-chromatographic purification as “N-terminal 6His-tagged” recombinant human protein in a baculovirus expression vector.
Flashplate Method (Met Kinase)
The test plates used are 96-well Flashplate® microtitre plates from Perkin Elmer (Cat. No. SMP200). The components of the kinase reaction described below are pipetted into the assay plate. The Met kinase and the substrate poly Ala-Glu-Lys-Tyr, (pAGLT, 6:2:5:1), are incubated for 3 hrs at room temperature with radioactively labelled ^33P-ATP in the presence and absence of test substances in a total volume of 100 μl. The reaction is terminated using 150 μl of a 60 mM EDTA solution. After incubation for a further 30 min at room temperature, the supernatants are filtered off with suction, and the wells are washed three times with 200 μl of 0.9% NaCl solution each time. The measurement of the bound radioactivity is carried out by means of a scintillation measuring instrument (Topcount NXT, Perkin-Elmer).
The full value used is the inhibitor-free kinase reaction. This should be approximately in the range 6000-9000 cpm. The pharmacological zero value used is staurosporin in a final concentration of 0.1 mM. The inhibitory values (IC50) are determined using the RS1_MTS program.
Kinase reaction conditions per well:
10 μl of substance to be tested in assay buffer with 10% of DMSO
10 μl of ATP (final concentration 1 μM cold, 0.35 μCi of ^33P-ATP)
50 μl of Met kinase/substrate mixture in assay buffer;
• (10 ng of enzyme/well, 50 ng of pAGLT/well) • Solutions used: • Assay buffer: • 50 mM HEPES • 3 mM magnesium chloride • 3 μM sodium orthovanadate • 3 mM manganese(II) chloride • 1 mM dithiothreitol (DTT) • pH=7.5 (to be set using sodium hydroxide) • Stop solution: • 60 mM Titriplex III (EDTA) • ^33P-ATP: Perkin-Elmer; • Met kinase: Upstate, Cat, No. 14-526, Stock 1 μg/10 μl; spec. activity 954 U/mg; • Poly-Ala-Glu-Lys-Tyr, 6:2:5:1: Sigma Cat. No. P1152 In-Vivo Tests
Target sequence in this assay (P08581 974-1390 limits assumed): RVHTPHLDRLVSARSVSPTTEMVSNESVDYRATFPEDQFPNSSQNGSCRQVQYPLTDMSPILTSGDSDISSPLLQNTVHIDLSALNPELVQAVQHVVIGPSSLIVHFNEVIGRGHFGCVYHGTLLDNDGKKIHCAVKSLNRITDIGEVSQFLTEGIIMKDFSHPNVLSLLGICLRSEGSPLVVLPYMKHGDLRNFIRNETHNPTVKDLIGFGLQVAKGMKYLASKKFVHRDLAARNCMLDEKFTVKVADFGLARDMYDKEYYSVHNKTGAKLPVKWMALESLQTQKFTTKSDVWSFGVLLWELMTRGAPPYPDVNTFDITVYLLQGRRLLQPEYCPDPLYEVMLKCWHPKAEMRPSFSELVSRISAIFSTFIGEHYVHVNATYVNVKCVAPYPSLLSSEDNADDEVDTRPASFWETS

Row | SMILES | IC50 (Met kinase [1]) [nM] | IC50 (Met kinase [2]) [nM]
1 | COCCOc1cnc(-c2cccc(Cc3nnc4ccc(C(=O)N(C)C)nn34)c2)nc1 [A40] | 100 to 10000 | 1 to 100
2 | CNC(=O)c1ccc2nnc(Cc3cccc(-c4ncc(OCCOC)cn4)c3)n2n1 [A28] | 100 to 10000 | 1 to 100
3 | CCCNC(=O)c1ccc2nnc(Cc3cccc(-c4ncc(OCCOC)cn4)c3)n2n1 [A39, N-propyl-3-{3-[5-(2-methoxyethoxy)pyrimidin-2-yl]benzyl}-1,2,4-triazolo[4,3-b]pyridazine-6-carboxamide] | 100 to 10000 | 1 to 100
4 | COCCOc1cnc(-c2cccc(Cc3nnc4ccc(C(=O)NCCO)nn34)c2)nc1 [A41] | > 10000 | 1 to 100
5 | COCCOc1cnc(-c2cccc(Cc3nnc4ccc(C(=O)O)nn34)c2)nc1 [A38, 3-{3-[5-(2-methoxyethoxy)pyrimidin-2-yl]benzyl}-1,2,4-triazolo[4,3-b]pyridazine-6-carboxylic acid] | 100 to 10000 | 1 to 100
6 | COc1ccc2nnc(C(F)(F)c3cccc(-c4ncc(-c5cnn(CCN6CCCC6)c5)cn4)c3)n2n1 [A20] | 1 to 100 | 1 to 100
